Experimental data from PMC4685510, “A Cell Biologist’s Field Guide to Aurora Kinase Inhibitors” (Frontiers in Oncology, 2015).

What was measured:
Assay in all cases: biochemical
Format in all cases: biochemical
[1] = molecular target: T1, 363 human kinases (including Aurora A/B/C) (Homo sapiens, UniProt P20794); settings: MAK; for remaining activity at 0.1 µM: 100 nM; for remaining activity at 0.1 µM / remaining activity at 0.5 µM: read-out: % Enzyme Activity (relative to DMSO controls)
T1 sequence (P20794 1-623): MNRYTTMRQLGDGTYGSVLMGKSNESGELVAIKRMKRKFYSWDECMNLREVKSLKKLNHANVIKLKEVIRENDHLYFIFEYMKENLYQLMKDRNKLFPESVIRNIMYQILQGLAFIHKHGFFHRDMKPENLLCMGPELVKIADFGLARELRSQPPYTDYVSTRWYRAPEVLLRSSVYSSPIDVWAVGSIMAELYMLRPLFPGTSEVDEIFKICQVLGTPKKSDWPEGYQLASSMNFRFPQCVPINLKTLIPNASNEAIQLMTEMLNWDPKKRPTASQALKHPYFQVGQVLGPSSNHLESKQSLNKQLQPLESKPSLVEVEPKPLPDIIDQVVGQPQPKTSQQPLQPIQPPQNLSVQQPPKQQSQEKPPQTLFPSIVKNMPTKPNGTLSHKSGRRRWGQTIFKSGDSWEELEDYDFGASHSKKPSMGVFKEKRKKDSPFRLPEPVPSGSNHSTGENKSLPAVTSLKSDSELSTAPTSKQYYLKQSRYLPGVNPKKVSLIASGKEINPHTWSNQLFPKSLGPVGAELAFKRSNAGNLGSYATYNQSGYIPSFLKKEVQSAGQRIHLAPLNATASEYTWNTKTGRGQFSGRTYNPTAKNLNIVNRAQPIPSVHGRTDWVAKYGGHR
Text: (§1) However, the Aurora A/B selectivity ratios derived from our in vitro and in vivo data can be compared to prioritize inhibitors.

[2] = molecular target: 363 human kinases (including Aurora A/B/C) (Homo sapiens, UniProt P29317); settings: EPHA2, [ATP] 50 µM; for remaining activity at 0.1 µM: 100 nM; for remaining activity at 0.1 µM / remaining activity at 0.5 µM: read-out: % Enzyme Activity (relative to DMSO controls)
Text: as §1

[3] = molecular target: T2, 363 human kinases (including Aurora A/B/C) (Homo sapiens, UniProt P36896); settings: ALK4/ACVR1B, [ATP] 50 µM; for remaining activity at 0.1 µM: 100 nM; for remaining activity at 0.1 µM / remaining activity at 0.5 µM: read-out: % Enzyme Activity (relative to DMSO controls)
T2 sequence (P36896 24-505): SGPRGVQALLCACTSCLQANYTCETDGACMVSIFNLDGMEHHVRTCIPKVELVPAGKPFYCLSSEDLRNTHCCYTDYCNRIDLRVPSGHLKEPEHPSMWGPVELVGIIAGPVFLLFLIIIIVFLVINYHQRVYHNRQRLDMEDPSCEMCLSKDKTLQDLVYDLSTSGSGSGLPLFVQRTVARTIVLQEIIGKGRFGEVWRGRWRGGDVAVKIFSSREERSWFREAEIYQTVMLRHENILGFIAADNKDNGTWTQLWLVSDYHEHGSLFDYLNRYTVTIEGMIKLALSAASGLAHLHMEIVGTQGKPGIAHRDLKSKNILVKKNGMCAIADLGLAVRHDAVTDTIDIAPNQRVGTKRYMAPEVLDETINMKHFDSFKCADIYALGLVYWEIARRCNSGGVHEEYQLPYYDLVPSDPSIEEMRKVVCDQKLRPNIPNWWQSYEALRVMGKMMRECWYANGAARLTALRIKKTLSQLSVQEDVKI
Text: as §1

[4] = molecular target: T3, 363 human kinases (including Aurora A/B/C) (Homo sapiens, UniProt P51813); settings: BMX/ETK, [ATP] 50 µM; for remaining activity at 0.1 µM: 100 nM; for remaining activity at 0.1 µM / remaining activity at 0.5 µM: read-out: % Enzyme Activity (relative to DMSO controls)
T3 sequence (P51813 1-675): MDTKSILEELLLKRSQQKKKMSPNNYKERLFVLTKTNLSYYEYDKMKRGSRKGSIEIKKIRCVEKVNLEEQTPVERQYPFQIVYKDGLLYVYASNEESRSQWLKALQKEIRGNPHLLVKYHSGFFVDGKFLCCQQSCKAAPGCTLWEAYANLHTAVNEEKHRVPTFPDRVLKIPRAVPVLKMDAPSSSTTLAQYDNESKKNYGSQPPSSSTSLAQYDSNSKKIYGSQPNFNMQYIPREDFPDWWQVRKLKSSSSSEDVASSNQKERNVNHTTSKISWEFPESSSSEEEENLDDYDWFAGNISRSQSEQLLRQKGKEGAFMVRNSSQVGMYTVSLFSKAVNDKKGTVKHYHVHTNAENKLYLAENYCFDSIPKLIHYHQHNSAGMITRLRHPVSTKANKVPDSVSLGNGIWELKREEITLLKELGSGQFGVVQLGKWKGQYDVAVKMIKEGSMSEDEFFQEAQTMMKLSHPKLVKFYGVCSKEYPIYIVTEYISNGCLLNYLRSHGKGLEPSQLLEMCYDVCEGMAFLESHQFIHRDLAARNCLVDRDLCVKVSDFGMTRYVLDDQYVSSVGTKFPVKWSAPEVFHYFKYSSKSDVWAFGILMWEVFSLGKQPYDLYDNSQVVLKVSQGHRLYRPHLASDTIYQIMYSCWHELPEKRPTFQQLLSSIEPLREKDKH
Text: as §1

[5] = molecular target: 363 human kinases (including Aurora A/B/C) (Homo sapiens, UniProt P54764); settings: EPHA4, [ATP] 30 µM; for remaining activity at 0.1 µM: 100 nM; for remaining activity at 0.1 µM / remaining activity at 0.5 µM: read-out: % Enzyme Activity (relative to DMSO controls)
Text: as §1

[6] = molecular target: 363 human kinases (including Aurora A/B/C) (Homo sapiens, UniProt Q6IQ55); settings: TTBK2; for remaining activity at 0.1 µM: 100 nM; for remaining activity at 0.1 µM / remaining activity at 0.5 µM: read-out: % Enzyme Activity (relative to DMSO controls)
Text: as §1

[7] = molecular target: 363 human kinases (including Aurora A/B/C) (Homo sapiens, UniProt Q8N4C8); settings: MINK/MINK1; for remaining activity at 0.1 µM: 100 nM; for remaining activity at 0.1 µM / remaining activity at 0.5 µM: read-out: % Enzyme Activity (relative to DMSO controls)
Text: as §1

[8] = molecular target: T4, 363 human kinases (including Aurora A/B/C) (Homo sapiens, UniProt Q9BXA7); settings: STK22D/TSSK1; for remaining activity at 0.1 µM: 100 nM; for remaining activity at 0.1 µM / remaining activity at 0.5 µM: read-out: % Enzyme Activity (relative to DMSO controls)
T4 sequence (Q9BXA7 1-367): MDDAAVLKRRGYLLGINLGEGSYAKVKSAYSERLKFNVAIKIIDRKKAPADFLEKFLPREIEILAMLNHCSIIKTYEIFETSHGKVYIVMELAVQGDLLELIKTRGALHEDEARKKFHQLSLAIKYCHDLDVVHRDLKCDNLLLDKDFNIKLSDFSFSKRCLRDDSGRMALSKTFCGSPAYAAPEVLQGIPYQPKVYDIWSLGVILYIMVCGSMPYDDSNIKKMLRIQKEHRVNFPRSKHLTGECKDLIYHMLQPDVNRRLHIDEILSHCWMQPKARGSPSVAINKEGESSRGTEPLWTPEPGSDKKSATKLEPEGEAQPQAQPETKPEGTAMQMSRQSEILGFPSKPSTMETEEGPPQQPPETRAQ
Text: as §1

[9] = molecular target: 363 human kinases (including Aurora A/B/C) (Homo sapiens, UniProt Q9HCP0); settings: CK1g1, [ATP] 20 µM; for remaining activity at 0.1 µM: 100 nM; for remaining activity at 0.1 µM / remaining activity at 0.5 µM: read-out: % Enzyme Activity (relative to DMSO controls)
Text: as §1

[10] = molecular target: 363 human kinases (including Aurora A/B/C) (Homo sapiens, UniProt Q9UKE5); settings: TNIK; for remaining activity at 0.1 µM: 100 nM; for remaining activity at 0.1 µM / remaining activity at 0.5 µM: read-out: % Enzyme Activity (relative to DMSO controls)
Sequence of 363 human kinases (including Aurora A/B/C) (Homo sapiens, UniProt Q9UKE5) (Q9UKE5 whole entry): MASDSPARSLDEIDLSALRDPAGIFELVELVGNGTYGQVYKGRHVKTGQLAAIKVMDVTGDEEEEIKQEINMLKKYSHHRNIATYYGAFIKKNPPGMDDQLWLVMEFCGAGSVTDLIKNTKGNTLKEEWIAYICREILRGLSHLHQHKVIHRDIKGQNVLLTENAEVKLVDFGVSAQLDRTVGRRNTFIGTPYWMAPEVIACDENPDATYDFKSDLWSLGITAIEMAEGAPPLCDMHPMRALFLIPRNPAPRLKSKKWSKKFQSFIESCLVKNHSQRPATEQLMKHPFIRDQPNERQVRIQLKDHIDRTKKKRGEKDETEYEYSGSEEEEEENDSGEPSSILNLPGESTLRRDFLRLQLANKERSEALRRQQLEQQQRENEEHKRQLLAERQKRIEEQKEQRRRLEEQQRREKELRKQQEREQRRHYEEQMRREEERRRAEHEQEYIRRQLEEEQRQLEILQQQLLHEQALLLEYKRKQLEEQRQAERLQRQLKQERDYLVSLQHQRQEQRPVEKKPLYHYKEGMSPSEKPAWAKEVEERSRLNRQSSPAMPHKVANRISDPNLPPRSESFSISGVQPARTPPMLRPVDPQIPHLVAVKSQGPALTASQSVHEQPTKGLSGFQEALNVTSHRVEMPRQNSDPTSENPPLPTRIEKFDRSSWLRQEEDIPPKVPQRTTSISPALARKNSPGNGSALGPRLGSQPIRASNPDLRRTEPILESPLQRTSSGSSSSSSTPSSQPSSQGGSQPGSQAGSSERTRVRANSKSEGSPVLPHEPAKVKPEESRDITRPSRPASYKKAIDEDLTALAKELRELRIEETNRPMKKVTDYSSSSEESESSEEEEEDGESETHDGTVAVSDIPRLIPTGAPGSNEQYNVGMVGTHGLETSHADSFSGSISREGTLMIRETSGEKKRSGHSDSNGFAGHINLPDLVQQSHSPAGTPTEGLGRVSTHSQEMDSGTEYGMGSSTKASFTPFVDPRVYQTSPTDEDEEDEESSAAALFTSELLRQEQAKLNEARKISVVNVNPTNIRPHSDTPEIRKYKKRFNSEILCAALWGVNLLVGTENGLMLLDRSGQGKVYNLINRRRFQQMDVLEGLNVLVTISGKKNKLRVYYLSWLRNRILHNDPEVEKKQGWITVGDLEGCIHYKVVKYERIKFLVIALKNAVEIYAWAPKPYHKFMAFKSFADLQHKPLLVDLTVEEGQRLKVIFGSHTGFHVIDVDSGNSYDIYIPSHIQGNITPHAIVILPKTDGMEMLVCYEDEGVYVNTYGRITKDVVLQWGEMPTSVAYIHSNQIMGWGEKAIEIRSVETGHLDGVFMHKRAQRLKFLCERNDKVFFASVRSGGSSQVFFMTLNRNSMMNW
Text: as §1

Sequence of 363 human kinases (including Aurora A/B/C) (Homo sapiens, UniProt P29317) (P29317 24-976): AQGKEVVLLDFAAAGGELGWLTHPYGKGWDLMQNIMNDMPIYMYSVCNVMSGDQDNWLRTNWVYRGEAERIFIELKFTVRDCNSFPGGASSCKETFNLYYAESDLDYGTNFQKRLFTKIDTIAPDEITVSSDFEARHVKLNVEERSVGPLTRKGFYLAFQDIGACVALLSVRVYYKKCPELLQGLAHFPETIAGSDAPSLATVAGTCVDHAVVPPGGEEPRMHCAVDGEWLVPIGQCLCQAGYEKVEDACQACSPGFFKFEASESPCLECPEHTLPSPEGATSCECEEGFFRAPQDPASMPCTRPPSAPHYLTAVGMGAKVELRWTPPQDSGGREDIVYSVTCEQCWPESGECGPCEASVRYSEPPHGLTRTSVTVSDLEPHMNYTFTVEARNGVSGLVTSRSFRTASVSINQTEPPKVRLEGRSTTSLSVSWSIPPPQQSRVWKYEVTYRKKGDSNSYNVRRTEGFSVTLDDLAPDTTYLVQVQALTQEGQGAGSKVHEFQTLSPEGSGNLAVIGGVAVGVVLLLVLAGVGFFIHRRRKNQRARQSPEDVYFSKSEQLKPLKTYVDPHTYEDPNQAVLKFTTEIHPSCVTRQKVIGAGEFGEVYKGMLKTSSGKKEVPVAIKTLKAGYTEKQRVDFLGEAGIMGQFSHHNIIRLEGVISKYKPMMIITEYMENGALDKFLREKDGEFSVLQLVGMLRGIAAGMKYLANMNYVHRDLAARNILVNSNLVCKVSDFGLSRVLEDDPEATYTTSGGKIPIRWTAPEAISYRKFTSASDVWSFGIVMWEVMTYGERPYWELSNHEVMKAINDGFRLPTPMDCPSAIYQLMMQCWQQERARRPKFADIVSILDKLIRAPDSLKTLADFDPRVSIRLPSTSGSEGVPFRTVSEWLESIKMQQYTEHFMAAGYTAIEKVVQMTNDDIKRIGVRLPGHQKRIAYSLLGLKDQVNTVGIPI
Sequence of 363 human kinases (including Aurora A/B/C) (Homo sapiens, UniProt P54764) (P54764 20-986): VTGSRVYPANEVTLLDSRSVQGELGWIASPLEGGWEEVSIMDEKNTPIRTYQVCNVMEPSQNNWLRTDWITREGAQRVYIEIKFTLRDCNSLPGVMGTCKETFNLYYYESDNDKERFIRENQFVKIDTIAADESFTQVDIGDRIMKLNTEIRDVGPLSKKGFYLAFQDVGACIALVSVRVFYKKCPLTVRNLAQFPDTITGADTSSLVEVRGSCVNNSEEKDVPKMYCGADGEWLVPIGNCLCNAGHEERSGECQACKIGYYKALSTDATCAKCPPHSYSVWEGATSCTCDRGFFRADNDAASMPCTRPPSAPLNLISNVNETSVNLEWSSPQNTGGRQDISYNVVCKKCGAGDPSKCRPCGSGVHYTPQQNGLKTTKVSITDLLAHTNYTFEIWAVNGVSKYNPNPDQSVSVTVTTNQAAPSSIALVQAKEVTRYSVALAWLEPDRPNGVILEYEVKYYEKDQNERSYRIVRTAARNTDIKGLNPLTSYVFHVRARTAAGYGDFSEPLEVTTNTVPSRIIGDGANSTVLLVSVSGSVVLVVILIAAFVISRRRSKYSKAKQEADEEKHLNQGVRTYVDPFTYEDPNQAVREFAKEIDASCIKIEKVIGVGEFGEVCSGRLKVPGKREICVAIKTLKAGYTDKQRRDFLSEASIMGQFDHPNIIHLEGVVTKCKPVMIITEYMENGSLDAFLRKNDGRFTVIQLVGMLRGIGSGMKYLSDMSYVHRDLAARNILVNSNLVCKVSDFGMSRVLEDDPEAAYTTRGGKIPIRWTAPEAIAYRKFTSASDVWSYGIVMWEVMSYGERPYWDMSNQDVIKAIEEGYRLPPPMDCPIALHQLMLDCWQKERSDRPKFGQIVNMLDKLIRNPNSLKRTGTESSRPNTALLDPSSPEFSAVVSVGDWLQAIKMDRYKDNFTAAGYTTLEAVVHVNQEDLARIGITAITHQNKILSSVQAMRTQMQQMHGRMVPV
Sequence of 363 human kinases (including Aurora A/B/C) (Homo sapiens, UniProt Q6IQ55) (Q6IQ55 whole entry): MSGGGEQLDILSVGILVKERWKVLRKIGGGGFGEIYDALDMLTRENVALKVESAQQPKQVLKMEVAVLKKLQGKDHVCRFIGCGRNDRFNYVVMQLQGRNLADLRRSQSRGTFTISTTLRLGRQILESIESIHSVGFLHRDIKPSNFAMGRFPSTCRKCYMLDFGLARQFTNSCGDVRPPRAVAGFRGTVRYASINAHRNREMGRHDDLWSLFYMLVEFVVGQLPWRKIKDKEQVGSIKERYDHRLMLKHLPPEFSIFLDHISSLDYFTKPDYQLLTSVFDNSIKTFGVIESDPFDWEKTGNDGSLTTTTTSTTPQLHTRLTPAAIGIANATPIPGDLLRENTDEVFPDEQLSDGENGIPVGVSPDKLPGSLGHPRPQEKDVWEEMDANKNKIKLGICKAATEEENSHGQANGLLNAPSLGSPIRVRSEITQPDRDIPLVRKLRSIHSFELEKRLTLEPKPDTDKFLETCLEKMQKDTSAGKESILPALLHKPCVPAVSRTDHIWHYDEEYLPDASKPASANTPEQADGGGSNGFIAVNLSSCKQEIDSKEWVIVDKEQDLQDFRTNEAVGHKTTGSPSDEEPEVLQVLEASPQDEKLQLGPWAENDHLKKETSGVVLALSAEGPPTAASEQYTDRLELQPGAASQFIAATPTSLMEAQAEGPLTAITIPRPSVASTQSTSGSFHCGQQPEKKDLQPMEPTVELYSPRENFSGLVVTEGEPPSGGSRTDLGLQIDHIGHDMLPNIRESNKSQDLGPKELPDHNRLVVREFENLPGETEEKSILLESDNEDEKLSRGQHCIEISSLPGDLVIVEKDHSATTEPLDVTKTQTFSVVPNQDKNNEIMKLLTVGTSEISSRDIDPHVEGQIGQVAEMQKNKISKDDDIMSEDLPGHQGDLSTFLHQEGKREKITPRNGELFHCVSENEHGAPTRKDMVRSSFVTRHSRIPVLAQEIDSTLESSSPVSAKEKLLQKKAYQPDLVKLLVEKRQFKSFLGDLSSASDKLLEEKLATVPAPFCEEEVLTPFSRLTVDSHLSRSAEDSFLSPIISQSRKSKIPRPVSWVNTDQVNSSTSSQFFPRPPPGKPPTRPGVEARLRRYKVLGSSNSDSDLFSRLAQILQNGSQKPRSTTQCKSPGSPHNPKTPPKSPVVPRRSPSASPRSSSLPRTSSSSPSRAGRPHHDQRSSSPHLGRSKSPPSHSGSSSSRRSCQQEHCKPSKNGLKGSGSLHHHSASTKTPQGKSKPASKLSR
Sequence of 363 human kinases (including Aurora A/B/C) (Homo sapiens, UniProt Q9HCP0) (Q9HCP0 whole entry): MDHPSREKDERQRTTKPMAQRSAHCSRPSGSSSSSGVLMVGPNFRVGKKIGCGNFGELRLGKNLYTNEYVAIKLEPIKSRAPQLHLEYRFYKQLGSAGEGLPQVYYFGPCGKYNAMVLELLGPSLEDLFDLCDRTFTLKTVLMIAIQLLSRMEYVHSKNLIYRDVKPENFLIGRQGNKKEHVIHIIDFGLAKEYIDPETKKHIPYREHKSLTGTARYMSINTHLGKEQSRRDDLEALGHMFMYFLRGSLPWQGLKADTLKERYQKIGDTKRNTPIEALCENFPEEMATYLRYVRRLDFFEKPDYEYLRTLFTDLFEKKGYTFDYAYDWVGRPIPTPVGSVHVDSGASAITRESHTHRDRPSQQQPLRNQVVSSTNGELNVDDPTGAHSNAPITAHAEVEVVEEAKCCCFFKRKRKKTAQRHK

Row | Structure (SMILES) | remaining activity at 0.1 µM [1] [%] | remaining activity at 0.5 µM ([1]; 500 nM) [%] | remaining activity at 0.1 µM [2] [%] | remaining activity at 0.5 µM ([2]; 500 nM) [%] | remaining activity at 0.1 µM [3] [%] | remaining activity at 0.5 µM ([3]; 500 nM) [%] | remaining activity at 0.1 µM [4] [%] | remaining activity at 0.5 µM ([4]; 500 nM) [%] | remaining activity at 0.1 µM [5] [%] | remaining activity at 0.5 µM ([5]; 500 nM) [%] | remaining activity at 0.1 µM [6] [%] | remaining activity at 0.5 µM ([6]; 500 nM) [%] | remaining activity at 0.1 µM [7] [%] | remaining activity at 0.5 µM ([7]; 500 nM) [%] | remaining activity at 0.1 µM [8] [%] | remaining activity at 0.5 µM ([8]; 500 nM) [%] | remaining activity at 0.1 µM [9] [%] | remaining activity at 0.5 µM ([9]; 500 nM) [%] | remaining activity at 0.1 µM [10] [%] | remaining activity at 0.5 µM ([10]; 500 nM) [%] | also measured
1 | O=C(O)[C@]1(Cc2cccc(Nc3nccs3)n2)CC[C@@H](Oc2cccc(Cl)c2F)CC1 [MK-5108] | 84.8 | 79.5 | 13.4 | 4.4 | 106 | 92.9 | 48.1 | 14.2 | 50.2 | 21.2 | 99.8 | 111 | 80 | 53.4 | 106 | 94.4 | 93.2 | 101 | 49.5 | 14.8 | –
2 | O=C(c1cccc(Cl)c1F)N1CCN(Cc2cccc(Nc3nccs3)n2)CC1 [MK-8745] | – | 87 | – | 63.4 | – | 137 | – | 90.7 | – | 87.2 | – | 110 | – | 86.8 | – | 93.6 | – | 98.7 | – | 81.3 | % Enzyme Activity (relative to DMSO controls) ([1]; 500 nM): 86.85%; % Enzyme Activity (relative to DMSO controls) ([2]; 500 nM): 62.60%; % Enzyme Activity (relative to DMSO controls) ([3]; 500 nM): 133.43%; % Enzyme Activity (relative to DMSO controls) ([4]; 500 nM): 88.19%; % Enzyme Activity (relative to DMSO controls) ([5]; 500 nM): 87.10%; % Enzyme Activity (relative to DMSO controls) ([6]; 500 nM): 109.64%; % Enzyme Activity (relative to DMSO controls) ([7]; 500 nM): 82.81%; % Enzyme Activity (relative to DMSO controls) ([8]; 500 nM): 93.43%; % Enzyme Activity (relative to DMSO controls) ([9]; 500 nM): 98.16%; % Enzyme Activity (relative to DMSO controls) ([10]; 500 nM): 77.61%
3 | CCn1cc(-c2ccnc3[nH]c(-c4cccc(CN(C)C)c4)cc23)c(-c2ccc(NC(=O)N(C)C)cc2)n1 [GSK1070916] | 100 | – | 92.7 | – | 102 | – | 96.1 | – | 100 | – | 119 | – | 78.3 | – | 90.1 | – | 104 | – | 57.3 | – | –
